From publication PMC3915329 (Journal of Ginseng Research, 2013)

target: T1, protein tyrosine phosphatase 1B (PTP1B) (Homo sapiens, UniProt P18031); test: Inhibitory activity against PTP1B assay; type: biochemical
T1 sequence (P18031 1-435): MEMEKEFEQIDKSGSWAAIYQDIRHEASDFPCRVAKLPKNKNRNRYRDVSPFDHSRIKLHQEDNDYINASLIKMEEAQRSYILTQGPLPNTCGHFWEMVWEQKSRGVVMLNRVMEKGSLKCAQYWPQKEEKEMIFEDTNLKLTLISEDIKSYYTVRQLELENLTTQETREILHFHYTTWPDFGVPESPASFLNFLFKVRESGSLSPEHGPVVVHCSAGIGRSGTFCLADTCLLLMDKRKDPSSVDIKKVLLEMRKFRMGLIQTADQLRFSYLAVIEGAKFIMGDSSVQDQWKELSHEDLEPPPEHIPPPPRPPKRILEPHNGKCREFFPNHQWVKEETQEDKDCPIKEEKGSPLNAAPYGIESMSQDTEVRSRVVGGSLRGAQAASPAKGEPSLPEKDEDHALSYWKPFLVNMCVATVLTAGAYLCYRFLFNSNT

Structure (SMILES) | IC50
CC(C)=CCC[C@](C)(O[C@@H]1O[C@H](CO[C@@H]2O[C@H](CO)[C@@H](O)[C@H](O)[C@H]2O)[C@@H](O)[C@H](O)[C@H]1O)[C@H]1CC[C@]2(C)[C@@H]1[C@H](O)C[C@@H]1[C@@]3(C)CC[C@H](O[C@@H]4O[C@H](CO)[C@@H](O)[C@H](O)[C@H]4O[C@@H]4O[C@H](CO)[C@@H](O)[C@H](O)[C@H]4O)C(C)(C)[C@@H]3CC[C@]12C [Compound 5, ginsenoside-Rb1] | > 100 µM
CC(C)=CCC[C@](C)(O[C@@H]1O[C@H](CO[C@@H]2O[C@@H](CO)[C@H](O)[C@H]2O)[C@@H](O)[C@H](O)[C@H]1O)[C@H]1CC[C@]2(C)[C@@H]1[C@H](O)C[C@@H]1[C@@]3(C)CC[C@H](O[C@@H]4O[C@H](CO)[C@@H](O)[C@H](O)[C@H]4O[C@@H]4O[C@H](CO)[C@@H](O)[C@H](O)[C@H]4O)C(C)(C)[C@@H]3CC[C@]12C [Compound 8, ginsenoside-Rc] | > 100 µM
CC1(C)CCC[C@](C)([C@H]2CC[C@]3(C)[C@@H]2[C@H](O)C[C@@H]2[C@@]4(C)CC[C@H](O)C(C)(C)[C@@H]4CC[C@]23C)O1 [Compound 18, panaxadiol] | > 100 µM
CC(C)=CCC[C@](C)(O[C@@H]1O[C@H](CO)[C@@H](O)[C@H](O)[C@H]1O)[C@H]1CC[C@]2(C)[C@@H]1[C@H](O)C[C@@H]1[C@@]3(C)CC[C@H](O[C@@H]4O[C@H](CO)[C@@H](O)[C@H](O)[C@H]4O[C@@H]4O[C@H](CO)[C@@H](O)[C@H](O)[C@H]4O)C(C)(C)[C@@H]3CC[C@]12C [Compound 9, ginsenoside-Rd] | > 100 µM
CC(C)=CCC[C@](C)(O[C@@H]1O[C@H](CO)[C@@H](O)[C@H](O)[C@H]1O)[C@H]1CC[C@]2(C)[C@@H]1[C@H](O)C[C@@H]1[C@@]3(C)CC[C@H](O)C(C)(C)[C@@H]3[C@@H](O)C[C@]12C [Compound 14, ginsenoside-F1] | > 100 µM
